Source: patent US8937167B2 (Washington University, priority 2009, dated 2015)
Entries after “also recorded” stand apart in the source; their conditions may differ.

Tested on: UTI89 biofilm
Assay: Disruption of preformed UTI89 biofilm (PVC plates, coverslips, confocal)
Format: cell-based, uropathogenic E. coli UTI89
Conditions: mannoside added to 24 h biofilm, further 16 h; confocal at 0.3 μM
Description: UTI89 biofilm was grown in LB+/− mannoside for 24 h at 22° C. in PVC plates and quantitated using crystal violet. UTI89 biofilm for confocal microscopy was grown in LB for 24 h at 22° C. on PVC coverslips. Mannoside was then added and biofilm was grown for an additional 16 h. Coverslips were then washed in PBS, fixed in 2% paraformaldehyde and stained with SYTO9 prior to confocal microscopy. For all animal experiments UTI89 or PBC-1 was grown 2×24 h statically in LB at 37° C. and inoculated at a dose of 1×10^7 bacteria in 50 μl. All mice used were female C3H/HeN (Jackson). For the pretreatment studies, bacteria were incubated with mannoside for 20 min prior to inoculation into the mouse. […] After growth at 37° C. overnight, bacterial counts were determined. […]
Biofilm assay. […] After 48 h of growth, wells were rinsed with water and stained with crystal violet for quantification as described. […] Wells were then rinsed, stained with crystal violet and quantified. […]
UTI89 was grown in LB in PVC plates and allowed to form biofilm at RT for 24 or 48 h. […] Biofilm formation was then quantitated using the standard crystal violet assay. […]
UTI89 was grown in LB broth in wells of PVC microtiter plates at 23° C. in the presence of individual mannosides at varying concentrations. After 48 h of growth, wells were rinsed with water and stained with crystal violet for quantification as described. […]

Compound: CNC(=O)c1cc(C(=O)NC)cc(-c2ccc(O[C@H]3O[C@H](CO)[C@@H](O)[C@H](O)[C@@H]3O)cc2)c1 [ZFH-2056]
- disruption / dispersal of preformed biofilm, qualitative: lacked continuity; also recorded: dispersed biofilm
